According to patent US20260327216A1, “SUBSTITUTED OXAZOLONE COMPOUND FOR DECREASING LEVELS OF IKZF I-4 PROTEINS” (BRISTOL-MYERS SQUIBB COMPANY, priority 2023, published 2026):

Assays:
Format in all cases: cell-based
IKZF4 Eos = molecular target: T1, IKZF4 Eos (Homo sapiens, UniProt Q96SW2+Q9H2S9); assay: Human Regulatory T Cell Reprogramming Assay, IKZF4; conditions: 12-13 days; for Dmax: Regulatory T cell, human, read-out: IKZF4 Eos max % deg. observed; for Dmax / IKZF4 Eos max % deg. observed: human CD4+CD127lowCD25+ Treg cells, stimulated, 100% = complete degradation
T1 construct: endogenous in cells; host or cells: FACS-sorted human CD4+CD127lowCD25+ Treg cells from healthy leukopaks
T1 sequence (Q9H2S9 whole entry): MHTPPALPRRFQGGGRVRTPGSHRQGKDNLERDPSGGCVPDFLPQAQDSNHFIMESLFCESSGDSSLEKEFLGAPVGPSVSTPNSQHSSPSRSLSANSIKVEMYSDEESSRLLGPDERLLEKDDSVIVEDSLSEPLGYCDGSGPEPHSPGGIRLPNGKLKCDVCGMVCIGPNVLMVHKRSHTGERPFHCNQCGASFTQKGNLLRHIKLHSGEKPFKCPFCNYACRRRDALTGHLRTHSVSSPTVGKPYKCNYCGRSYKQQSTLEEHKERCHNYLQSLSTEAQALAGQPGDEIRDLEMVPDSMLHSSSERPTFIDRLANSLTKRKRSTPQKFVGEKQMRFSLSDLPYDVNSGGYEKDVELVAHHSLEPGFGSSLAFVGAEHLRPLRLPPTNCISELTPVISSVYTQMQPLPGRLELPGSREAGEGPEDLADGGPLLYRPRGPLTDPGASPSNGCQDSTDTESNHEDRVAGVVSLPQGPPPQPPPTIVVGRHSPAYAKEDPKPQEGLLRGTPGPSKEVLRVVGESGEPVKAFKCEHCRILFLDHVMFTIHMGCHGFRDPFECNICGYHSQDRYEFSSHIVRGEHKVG
T1 sequence (Q96SW2 whole entry): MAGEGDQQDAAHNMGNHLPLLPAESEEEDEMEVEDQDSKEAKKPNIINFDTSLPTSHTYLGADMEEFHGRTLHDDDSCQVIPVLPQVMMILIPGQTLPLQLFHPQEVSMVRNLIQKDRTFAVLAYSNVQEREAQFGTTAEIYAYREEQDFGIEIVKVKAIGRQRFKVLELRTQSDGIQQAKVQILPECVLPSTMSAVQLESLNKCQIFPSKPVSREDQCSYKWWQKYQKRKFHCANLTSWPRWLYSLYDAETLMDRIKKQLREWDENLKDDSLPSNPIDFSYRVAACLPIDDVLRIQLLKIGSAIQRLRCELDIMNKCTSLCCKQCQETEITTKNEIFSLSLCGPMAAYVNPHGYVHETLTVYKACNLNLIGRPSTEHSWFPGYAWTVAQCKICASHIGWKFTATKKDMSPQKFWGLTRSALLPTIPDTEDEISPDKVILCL
T1 sequence (Q16531 whole entry partner): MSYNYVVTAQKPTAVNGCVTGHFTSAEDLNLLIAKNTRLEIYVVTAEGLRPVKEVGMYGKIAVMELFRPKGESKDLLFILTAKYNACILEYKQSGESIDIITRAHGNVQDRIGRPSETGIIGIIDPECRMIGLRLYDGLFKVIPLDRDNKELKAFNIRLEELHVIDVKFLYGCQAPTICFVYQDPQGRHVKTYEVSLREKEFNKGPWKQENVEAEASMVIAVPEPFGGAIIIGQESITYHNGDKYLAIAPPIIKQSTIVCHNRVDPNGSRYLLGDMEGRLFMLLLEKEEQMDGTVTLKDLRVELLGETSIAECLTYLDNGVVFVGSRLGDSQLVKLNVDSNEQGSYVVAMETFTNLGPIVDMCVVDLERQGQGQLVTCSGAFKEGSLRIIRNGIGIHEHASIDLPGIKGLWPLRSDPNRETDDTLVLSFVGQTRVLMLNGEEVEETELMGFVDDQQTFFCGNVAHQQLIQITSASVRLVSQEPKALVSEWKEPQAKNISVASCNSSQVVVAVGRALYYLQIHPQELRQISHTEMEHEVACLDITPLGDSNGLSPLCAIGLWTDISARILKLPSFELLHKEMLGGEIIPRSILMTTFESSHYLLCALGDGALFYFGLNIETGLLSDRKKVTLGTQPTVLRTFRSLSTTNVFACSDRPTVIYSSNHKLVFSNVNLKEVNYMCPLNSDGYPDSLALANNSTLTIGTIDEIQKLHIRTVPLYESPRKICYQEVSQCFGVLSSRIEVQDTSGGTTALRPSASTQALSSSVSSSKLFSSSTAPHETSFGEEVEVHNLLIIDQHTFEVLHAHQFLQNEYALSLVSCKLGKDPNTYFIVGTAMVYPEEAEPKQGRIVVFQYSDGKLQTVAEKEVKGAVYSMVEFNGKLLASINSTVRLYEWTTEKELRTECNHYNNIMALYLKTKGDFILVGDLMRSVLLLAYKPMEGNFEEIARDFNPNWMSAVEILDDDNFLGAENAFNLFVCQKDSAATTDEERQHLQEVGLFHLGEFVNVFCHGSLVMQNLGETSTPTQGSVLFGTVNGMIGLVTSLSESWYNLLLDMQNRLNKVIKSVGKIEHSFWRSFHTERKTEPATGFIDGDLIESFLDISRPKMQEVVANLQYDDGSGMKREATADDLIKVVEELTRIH
Protocol: Human CD4^+ T cells were isolated from fresh healthy leukopaks (Stemcell Technologies) using the RosetteSep Human CD4^+ T cell enrichment cocktail (Stemcell Technologies) and Ficoll density gradient centrifugation. Leukopaks were diluted with an equal volume of phosphate-buffered saline (PBS [Gibco]) supplemented with 2% fetal bovine serum (FBS, VWR Lifescience) and incubated with RosetteSep Human CD4^+ T cell enrichment cocktail for 20 minutes before layering on Ficoll-Paque Plus solution (GE Health Care). The cell-rich interface layer was harvested and washed twice with PBS supplemented with 2% FBS. Regulatory T cells were then isolated manually using the EasySep Human CD4^+CD127^lowCD25^+ Regulatory T cell isolation kit (Stemcell Technologies) according to the manufacturer's instructions. Cells were rested overnight in Roswell Park Memorial Institute (RPMI) 1640 media (Gibco) supplemented with 10% FBS, Pen/Strep (Gibco), MEM-NEAA (Gibco), and sodium pyruvate (Gibco) in a humidified incubator (37° C., 5% CO2). Cells were then stained for CD4 (clone: RPA-T4, Biolegend), CD25 (clone: 2A3, BD Biosciences), and CD127 (clone: hIL-7R-M21, BD Biosciences). CD4^+CD127^lowCD25^+ cells were sorted on a BD FACS Aria Fusion sorter to a purity of 95% or greater. Sorted cells were immediately used or cryopreserved for downstream assays.
Fresh or cryopreserved FACS-sorted CD4^+CD127^lowCD25^+ Treg cells were cultured at 25,000-50,000 cells/well of 96-well round bottom plates in RPMI 1640 media (Gibco) supplemented with 10% FBS, Pen/Strep (Gibco), MEM-NEAA (Gibco), and sodium pyruvate (Gibco). Cells were stimulated with Treg Xpander beads (Thermo Fisher) at cells-to-beads ratio of 1:4 in the presence of 500 U/mL recombinant human IL-2 (Proleukin). Compounds were added at titrated doses and cells were incubated at 37°C., 5% CO2 for 12-13 days. Recombinant human IL-2 and compound were replenished every 2-3 days during the entire culture duration. On day 12 or 13, cells were restimulated with phorbol 12-myristate 13-acetate (PMA) and ionomycin in the presence of the protein transport inhibitors brefeldin A and monensin (eBioscience Cell Stimulation Cocktail plus protein transport inhibitors, 500×, Catalog number 00-4975-93) before proceeding with flow cytometry staining and analysis.
For flow cytometry staining, cells were washed twice with flow cytometry staining buffer (Thermo Fisher) and incubated in Human Tru-stain Fc block (Biolegend) for 10 minutes before adding eFluor780 viability dye (Thermo Fisher) and surface marker antibody cocktail for 30 minutes at 4° C. Cells were then fixed and permeabilized by incubation with FoxP3 transcription factor staining buffer (Thermo Fisher) for 30 minutes at 4° C. as per the kit manufacturer's instructions. Cells were washed twice with the Perm/Wash buffer supplied in the kit as per the manufacturer's instructions and incubated overnight at 4° C. with an intracellular antibody cocktail comprised of antibodies specific for the transcription factors shown in Table C. Cells were washed twice with Perm/Wash buffer and resuspended in flow cytometry staining buffer (Thermo Fisher) prior to acquisition. Sample acquisition and analysis was performed using a BD LSRFortessa (BD Biosciences) flow cytometer. Single stain controls for each fluorochrome were prepared using UltraComp eBead Compensation Beads (Thermo Fisher). Data were analyzed using FlowJo version 10 and GraphPad Prism Software.
Table C-1 lists the maximum observed degradation of the IKZF2 protein and IKZF4 protein as measured in the Human Regulatory T Cell Reprogramming assay. The results in Table C-1 were rounded to two digits. In the Human Regulatory T Cell Reprogramming assay, a value of 100% indicated no detectable protein remaining or complete degradation of the protein; and a value of 0% indicated no detectable degradation of the protein by the test compound.

IKZF3 Aiolos = IKZF3 Aiolos (Homo sapiens, UniProt Q96SW2+Q9UKT9); assay: Jurkat Cellular Degradation Assay, IKZF3; set-up: endogenous in cells; conditions: Jurkat cells, 72 h; for Dmax: human, 100% = complete degradation, 0% = no detectable degradation, read-out: IKZF3 Aiolos max % deg. observed
IKZF3 Aiolos, sequence (Q9UKT9 whole entry): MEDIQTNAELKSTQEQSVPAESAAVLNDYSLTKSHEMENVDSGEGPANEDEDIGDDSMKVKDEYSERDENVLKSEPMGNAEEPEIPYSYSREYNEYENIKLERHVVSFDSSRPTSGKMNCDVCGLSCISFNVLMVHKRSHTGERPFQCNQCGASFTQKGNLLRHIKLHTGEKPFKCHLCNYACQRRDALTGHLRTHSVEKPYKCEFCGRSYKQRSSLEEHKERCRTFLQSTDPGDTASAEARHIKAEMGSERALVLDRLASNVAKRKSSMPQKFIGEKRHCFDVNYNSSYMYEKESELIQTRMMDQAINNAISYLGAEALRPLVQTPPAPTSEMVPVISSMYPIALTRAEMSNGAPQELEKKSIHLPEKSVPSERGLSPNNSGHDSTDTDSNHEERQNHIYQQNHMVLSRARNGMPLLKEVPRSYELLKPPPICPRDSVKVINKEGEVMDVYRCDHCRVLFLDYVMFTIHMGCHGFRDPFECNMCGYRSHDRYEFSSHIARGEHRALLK
IKZF3 Aiolos, sequence (Q96SW2 whole entry): as the sequence (Q96SW2 whole entry) above
IKZF3 Aiolos, sequence (Q16531 whole entry partner): as the sequence (Q16531 whole entry partner) above
Protocol: (§1) Jurkat cells were plated at 80,000 cells/well in 40 μL RPMI+10% FBS in a 384-well cell culture plate prior to using acoustic dispensing technology for adding a compound of interest. Cell cultures were incubated for 72 h at 37° C. and 5% CO2. In order to facilitate analysis, cell cultures were spun down at 200 rpm for 5 min and the supernatant was discarded. After shaking the plate to dislodge the cell pellet, cells were resuspended in 50 μL of Fixation Buffer (eBioscience FoxP3 buffer set 00-5523-00) for 60 min at room temperature. After centrifuging and discarding the supernatant, cells were permeabilized with 50 μL of Permeabilization buffer (eBioscience FoxP3 buffer set 00-5523-00) for 10 min at room temperature. Following permeabilization, cells were spun down and the supernatant was replaced with 20 μL fluorescently labelled antibodies against Helios, Ikaros and Aiolos or corresponding Isotype controls in 1× Permeabilization buffer (Ikaros-Alexa488 [Biolegend, Cat #368408, 1:50], Helios-PE [CST, Cat #29360, 1:50], Aiolos-Alexa647 [Biolegend, Cat #371106 Biolegend, 1:25]) and staining reactions were incubated for 1 h at room temperature while protected from light. Subsequently, 30 μL of 1× Permeabilization buffer was added prior to centrifuging the cells and discarding the supernatant. Stained cells were resuspended in 25 μL of flow cytometry staining buffer [PBS+0.2% bovine serum albumin (BSA)] and analyzed using an Intellicyt Ique Plus flow cytometer.
(§2) Table A-1 lists the maximum observed degradation of the IKZF1 protein, IKZF2 protein, and IKZF3 protein as measured in the Jurkat Cellular Degradation assay. The results in Table A-1 were rounded to two digits. In the Jurkat Cellular Degradation assay, a value of 100% indicated no detectable protein remaining or complete degradation of the protein; and a value of 0% indicated no detectable degradation of the protein by the test compound.

IKZF2 Helios = IKZF2 Helios (Homo sapiens, UniProt Q96SW2+Q9UKS7); assay: Jurkat Cellular Degradation Assay, IKZF2; set-up: endogenous in cells; conditions: 72 h, Jurkat cells; for Dmax: Jurkat, human, 100% = complete degradation, 0% = no detectable degradation, read-out: IKZF2 Helios max % deg. observed
IKZF2 Helios, sequence (Q9UKS7 whole entry): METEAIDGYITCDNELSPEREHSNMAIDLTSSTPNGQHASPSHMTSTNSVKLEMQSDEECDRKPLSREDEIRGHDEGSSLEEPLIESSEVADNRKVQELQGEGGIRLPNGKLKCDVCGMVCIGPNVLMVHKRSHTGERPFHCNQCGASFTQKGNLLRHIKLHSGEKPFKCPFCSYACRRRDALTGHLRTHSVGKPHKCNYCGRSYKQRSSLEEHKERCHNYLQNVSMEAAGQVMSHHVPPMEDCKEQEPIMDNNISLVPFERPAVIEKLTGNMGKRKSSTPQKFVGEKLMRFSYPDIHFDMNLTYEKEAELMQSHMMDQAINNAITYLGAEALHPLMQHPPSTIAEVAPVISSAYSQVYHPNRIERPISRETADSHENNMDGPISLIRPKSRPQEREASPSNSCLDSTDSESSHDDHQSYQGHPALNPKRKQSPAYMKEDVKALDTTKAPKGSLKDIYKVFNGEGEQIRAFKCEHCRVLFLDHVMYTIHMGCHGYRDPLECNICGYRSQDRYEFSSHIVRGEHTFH
IKZF2 Helios, sequence (Q96SW2 whole entry): as the sequence (Q96SW2 whole entry) above
IKZF2 Helios, sequence (Q16531 whole entry partner): as the sequence (Q16531 whole entry partner) above
Protocol: as §1, §2

[1] = concentration reducing protein level by 50% vs DMSO

Q: How did the Dmax (IKZF4 Eos) turn out when `O=C1CCC(n2cc(-c3ccc(Br)cc3F)oc2=O)C(=O)N1` (stereo not shown) [Comparative Compound B, 3-(5-(4-bromo-2-fluorophenyl)-2-oxooxazol-3(2H)-yl)piperidine-2,6-dione] was run?
A: The Dmax was at most 11%.

Q: What about the “IKZF4 Eos max % deg. observed” value (IKZF4 Eos) of the same compound?
A: The value was 11%.

Q: What about the Dmax (IKZF3 Aiolos) of the same compound?
A: The Dmax was 15%.

Q: How did the “IKZF4 Eos max % deg. observed” value (IKZF4 Eos) turn out when `O=C1CCC(n2cc(-c3ccccc3)oc2=O)C(=O)N1` (stereo not shown) [Comparative Compound A, 3-(2-oxo-5-phenyloxazol-3(2H)-yl)piperidine-2,6-dione] was run?
A: Its value is 0%.

Q: What about the Dmax (IKZF2 Helios) of the same compound?
A: Its Dmax is under 30%.

Q: What about the Dmax (IKZF3 Aiolos) of the same compound?
A: The Dmax was 46%.

Q: For `Cc1cc(-c2ccc(-c3cn(C4CCC(=O)NC4=O)c(=O)o3)c(F)c2)nc(N)c1OC(F)F` (stereo not shown) [Example 1, 3-(5-(4-(6-Amino-5-(difluoromethoxy)-4-methylpyridin-2-yl)-2-fluorophenyl)-2-oxooxazol-3(2H)-yl)piperidine-2,6-dione], which Dmax (IKZF4 Eos) is on record?
A: The Dmax was 68 to 71%.

Q: And the “IKZF4 Eos max % deg. observed” value (IKZF4 Eos)?
A: The value was 68-71%.

Q: What about the DC50 (IKZF4 Eos; human Treg cells, concentration reducing protein level by 50% vs DMSO) of the same compound?
A: Its DC50 is 0.45 nM.

Q: What about the DC50 (IKZF2 Helios; [1]) of the same compound?
A: The DC50 was 17.9 nM.

Q: And the Dmax (IKZF2 Helios)?
A: The Dmax was over 90%.

Q: What about the DC50 (IKZF3 Aiolos; [1]) of the same compound?
A: Its DC50 is 9010 nM.

Q: What about the Dmax (IKZF3 Aiolos) of the same compound?
A: Its Dmax is 52%.
